Reference: publication PMC10426190 (Breast Cancer Research : BCR, 2023)

Test system: E2-induced (ER target) genes in MCF7
Test: Gene expression analysis by RNA-sequencing in MCF7 with E2 stimulation
Type: cell-based, human
Settings: MCF7; 1 nM E2 ± 1 μM compound, 24 h
Description: MCF7 were cultured in hormone deprivation media (with 10% charcoal-stripped FBS) for at least 3 days before assay. Trypsinized cells were seeded in a 12-well plate, stimulated with 1 nM β-estradiol (E2), and treated with/without 1 μM compounds for 24 h. Total RNA was extracted using the TRIzol reagent according to the manufacturer’s protocol. RNA purity and quantification were evaluated using the NanoDrop 2000 spectrophotometer (Thermo Scientific, USA). RNA integrity was assessed using the Agilent 2100 Bioanalyzer (Agilent Technologies, Santa Clara, CA, USA). Then the libraries were constructed using TruSeq Stranded mRNA LT Sample Prep Kit (Illumina, San Diego, CA, USA) according to the manufacturer’s instructions. The transcriptome sequencing and analysis were conducted by OE Biotech Co., Ltd. (Shanghai, China). The libraries were sequenced on an Illumina HiSeq X Ten platform and 150 bp paired-end reads were generated. […] Raw data (raw reads) of FASTq format were firstly processed using Trimmomatic and the low-quality reads were removed to obtain the clean reads. […] The clean reads were mapped to the human genome (GRCh38) using HISAT2 [27]. FPKM [28] of each gene was calculated using Cufflinks, and the read counts of each gene were obtained by HTSeqcount. Differential expression analysis was performed using the DESeq (2012) R package.
MCF7 with hormone-deprived pre-treatment were administrated ER ligands or not present with 1 nM E2 stimulation for 24 h incubation in a 12-well plate. Total mRNA was isolated from treated cells and sequenced on an Illumina HiSeq X Ten platform. FPKM of each gene was calculated using Cufflinks and Differential expression genes analysis by using the DESeq (2012) R package. […] T47D EFM-19 and HCC1500 cells were grown in RPMI media supplemented with 10% charcoal-stripped FBS for 14 days and then treated with ER antagonist (1 μM) or DMSO in the presence E2 (1nM) stimulation for 24 h before RNA isolation and gene expression analysis as described in methods. […] The uteruses were harvested 24 h after the final doses and stained by toluidine blue. Endometrial height was assessed from the basement membrane to the luminal border (scale bar in green lines: 200 μm), Arrows indicate the uterine epithelium (e).

For `C[C@]12CC[C@@H]3c4ccc(O)cc4C[C@@H](CCCCCCCCC[S+]([O-])CCCC(F)(F)C(F)(F)F)[C@H]3[C@@H]1CC[C@@H]2O` (some centres unmarked) [Fulvestrant], the ACTG2 expression was 1.20 FPKM, the ADCY1 expression was 6.76 FPKM and the AGR3 expression was 2.46 FPKM. It also gave an AMZ1 expression of 0.77 FPKM, an ANLN expression of 18.71 FPKM and an ARHGAP36 expression of 0.28 FPKM. The ASCL1 expression was 0.54 FPKM, the ASF1B expression was 26.04 FPKM and the ASMTL-2 expression was 1.41 FPKM. For the same compound, the ATAD2 expression was 23.77 FPKM, the ATRNL1 expression was 0.05 FPKM and the AURKB expression was 19.26 FPKM. The BIRC5 expression was 23.46 FPKM, the BLM expression was 2.45 FPKM and the BMPER expression was 0.11 FPKM. For the same compound, the BRCA1 expression was 2.96 FPKM, the BRCA2 expression was 2.04 FPKM and the BRIP1 expression was 17.34 FPKM. It also gave a BUB1B expression of 8.27 FPKM, a C1orf226 expression of 3.74 FPKM and a C5AR2 expression of 0.51 FPKM. The CA2 expression was 87.89 FPKM, the CA12 expression was 18.70 FPKM and the CALCR expression was 0.77 FPKM. The CAV1 expression was 5.48 FPKM, the CCN5 expression was 22.35 FPKM and the CCNA2 expression was 15.79 FPKM. For the same compound, the CCNE2 expression was 4.70 FPKM, the CD99-2 expression was 1.09 FPKM and the CDC6 expression was 4.59 FPKM. It also gave a CDC25A expression of 1.67 FPKM, a CDC45 expression of 5.51 FPKM and a CDCA3 expression of 6.06 FPKM. It also gave a CDCA4 expression of 12.74 FPKM, a CDCA5 expression of 11.52 FPKM and a CDCA7 expression of 1.84 FPKM. For the same compound, the CDH26 expression was 0.21 FPKM, the CDK1 expression was 14.26 FPKM and the CDT1 expression was 21.42 FPKM. For the same compound, the CENPI expression was 2.93 FPKM, the CENPU expression was 4.96 FPKM and the CHAF1B expression was 1.52 FPKM. For the same compound, the CHEK1 expression was 2.32 FPKM, the CKS1B expression was 46.61 FPKM and the CLSPN expression was 1.80 FPKM. The COL12A1 expression was 1.73 FPKM, the CXCL12 expression was 1.70 FPKM and the DDIAS expression was 2.63 FPKM. It also gave a DHRSX-2 expression of 0.11 FPKM, a DKK1 expression of 26.72 FPKM and a DNA2 expression of 2.77 FPKM. The DPYSL5 expression was 0.36 FPKM, the DSCC1 expression was 4.38 FPKM and the DTL expression was 1.38 FPKM. For the same compound, the E2F1 expression was 7.00 FPKM, the E2F2 expression was 1.27 FPKM and the E2F7 expression was 2.55 FPKM. It also gave an E2F8 expression of 3.66 FPKM, an ELOVL2 expression of 3.33 FPKM and an EME1 expression of 3.73 FPKM. For the same compound, the ERCC6L expression was 1.34 FPKM, the ESCO2 expression was 2.24 FPKM and the ESPL1 expression was 7.73 FPKM. For the same compound, the EXO1 expression was 2.15 FPKM, the FAM20A expression was 0.46 FPKM and the FAM111B expression was 2.82 FPKM. For the same compound, the FANCA expression was 9.92 FPKM, the FANCD2 expression was 5.42 FPKM and the FANCI expression was 16.43 FPKM. It also gave an FEN1 expression of 24.35 FPKM, an FIGNL1 expression of 2.36 FPKM and an FKBP4 expression of 43.52 FPKM. The GATA4 expression was 0.00 FPKM, the GFRA1 expression was 26.23 FPKM and the GINS1 expression was 8.52 FPKM. For the same compound, the GINS2 expression was 8.09 FPKM, the GJA1 expression was 0.06 FPKM and the GLA expression was 31.47 FPKM. The GP1BB expression was 0.79 FPKM, the GPR68 expression was 0.13 FPKM and the GPRIN1 expression was 2.95 FPKM. For the same compound, the GREB1 expression was 3.94 FPKM, the H2AX expression was 89.38 FPKM and the HBB expression was 0.00 FPKM. For the same compound, the HELLS expression was 2.89 FPKM, the HEY2 expression was 0.43 FPKM and the HMGB2 expression was 118.94 FPKM. For the same compound, the IGFBP4 expression was 26.82 FPKM, the IGSF1 expression was 3.55 FPKM and the ITGA2B expression was 0.30 FPKM. The KIF11 expression was 11.20 FPKM, the KIF18B expression was 4.13 FPKM and the KIFC1 expression was 12.36 FPKM. For the same compound, the KLK11 expression was 1.75 FPKM, the KNL1 expression was 3.41 FPKM and the KNTC1 expression was 5.81 FPKM. It also gave an LHX2 expression of 1.30 FPKM, an LIG1 expression of 19.47 FPKM and an LMNB1 expression of 49.03 FPKM. For the same compound, the MAD2L1 expression was 6.32 FPKM, the MCM2 expression was 24.98 FPKM and the MCM3 expression was 30.18 FPKM. The MCM4 expression was 38.73 FPKM, the MCM5 expression was 9.71 FPKM and the MCM6 expression was 18.69 FPKM. The MCM7 expression was 65.17 FPKM, the MCM10 expression was 2.51 FPKM and the MELK expression was 9.66 FPKM. The MKI67 expression was 19.11 FPKM, the MYB expression was 3.86 FPKM and the MYBL1 expression was 0.96 FPKM. For the same compound, the MYBL2 expression was 29.90 FPKM, the NCAPG2 expression was 15.05 FPKM and the NCAPG expression was 5.76 FPKM. It also gave an NPY1R expression of 3.20 FPKM, an ORC1 expression of 2.67 FPKM and an ORC6 expression of 5.57 FPKM. It also gave a PAQR4 expression of 9.57 FPKM, a PBK expression of 14.24 FPKM and a PCLAF expression of 28.12 FPKM. It also gave a PCNA expression of 48.34 FPKM, a PDZK1 expression of 0.47 FPKM and a PGR expression of 0.52 FPKM. The PKIB expression was 16.14 FPKM, the PKMYT1 expression was 9.90 FPKM and the POLA1 expression was 2.69 FPKM. For the same compound, the POLA2 expression was 4.51 FPKM, the POLD1 expression was 11.19 FPKM and the POLE2 expression was 2.45 FPKM. It also gave a POLE expression of 11.56 FPKM, a POLQ expression of 2.64 FPKM and a PRIM1 expression of 7.88 FPKM. For the same compound, the PRSS23 expression was 49.30 FPKM, the RAB31 expression was 6.58 FPKM and the RAD51AP1 expression was 5.24 FPKM. The RAD51 expression was 3.28 FPKM, the RAD54L expression was 3.44 FPKM and the RAMP3 expression was 0.40 FPKM. For the same compound, the RAPGEFL1 expression was 2.18 FPKM, the RBL1 expression was 2.06 FPKM and the RECQL4 expression was 10.79 FPKM. It also gave an RERG expression of 2.17 FPKM, an RET expression of 1.74 FPKM and an RFC2 expression of 14.47 FPKM. For the same compound, the RFC3 expression was 3.82 FPKM, the RFC4 expression was 10.05 FPKM and the RNASEH2A expression was 24.71 FPKM. It also gave an RRM1 expression of 19.08 FPKM, an RRM2 expression of 24.81 FPKM and an RUBCNL expression of 0.10 FPKM. For the same compound, the SDK2 expression was 0.25 FPKM, the SFXN2 expression was 7.17 FPKM and the SHCBP1 expression was 2.87 FPKM. For the same compound, the SKA3 expression was 4.69 FPKM, the SLC6A14 expression was 8.71 FPKM and the SMC2 expression was 6.16 FPKM. For the same compound, the SPC24 expression was 6.59 FPKM, the SPC25 expression was 6.79 FPKM and the STC2 expression was 28.34 FPKM. For the same compound, the TACC3 expression was 19.06 FPKM, the TCF19 expression was 6.28 FPKM and the TCOF1 expression was 9.75 FPKM. The TGM2 expression was 0.56 FPKM, the TICRR expression was 3.71 FPKM and the TK1 expression was 42.16 FPKM. It also gave a TMEM26 expression of 0.84 FPKM, a TMEM164 expression of 6.22 FPKM and a TONSL expression of 9.44 FPKM. For the same compound, the TOP2A expression was 29.21 FPKM, the TP73 expression was 1.03 FPKM and the TRIP13 expression was 6.92 FPKM. The TUBA1B expression was 473.72 FPKM, the TUBB expression was 230.78 FPKM and the TYMS expression was 25.13 FPKM. The UBE2C expression was 32.42 FPKM, the UBE2T expression was 45.52 FPKM and the UHRF1 expression was 6.71 FPKM. The UNG expression was 29.02 FPKM, the WDHD1 expression was 4.38 FPKM and the WDR62 expression was 5.55 FPKM. For the same compound, the WDR76 expression was 1.69 FPKM, the XRCC2 expression was 2.48 FPKM and the XRCC3 expression was 5.83 FPKM. The ZGRF1 expression was 1.75 FPKM and the ZNF367 expression was 4.18 FPKM.
